In brackets after ≈: the same amount, converted by molar mass.
How the values were obtained:
Type in all cases: functional
[1] = test system: Escherichia coli; experiment: Antimicrobial activity against Escherichia coli
[2] = test system: Staphylococcus aureus; experiment: Antimicrobial activity against Staphylococcus aureus
[3] = test system: Pseudomonas aeruginosa; experiment: Antimicrobial activity against Pseudomonas aeruginosa

MIC [1]: 1 µg/mL (≈ 2.78 µM)
MIC [2]: 8 µg/mL (≈ 22.3 µM)
MIC [3]: 1 µg/mL (≈ 2.78 µM)
SMILES: CCN1CCN(c2cc3c(cc2F)c(=O)c(C(=O)O)cn3C2CC2)CC1 [ENROFLOXACIN]

From ChEMBL document CHEMBL1139086, “Synthesis, characterization, antibacterial activity, and interaction with DNA of the vanadyl-enrofloxacin complex” (2007)
